We go through 35 molecules from ChEMBL document CHEMBL5126611, “Design, Synthesis, and Biological Evaluations of Pyridyl 4,5,6,7-Tetrahydro-4,7-Methanobenzo[d]isoxazoles as Potent and Selective Inhibitors of 11β-Hydroxylase” (J Med Chem, 2022).

A short description of data set [1]: Selectivity ratio of IC50 for inhibition of human CYP11B2 to IC50 for inhibition of human CYP11B1. The data set is classed as ADME.
Data set [2] deals with T1, Cytochrome P450 11B1, mitochondrial (Homo sapiens, UniProt P15538).
T1 sequence (P15538 whole entry): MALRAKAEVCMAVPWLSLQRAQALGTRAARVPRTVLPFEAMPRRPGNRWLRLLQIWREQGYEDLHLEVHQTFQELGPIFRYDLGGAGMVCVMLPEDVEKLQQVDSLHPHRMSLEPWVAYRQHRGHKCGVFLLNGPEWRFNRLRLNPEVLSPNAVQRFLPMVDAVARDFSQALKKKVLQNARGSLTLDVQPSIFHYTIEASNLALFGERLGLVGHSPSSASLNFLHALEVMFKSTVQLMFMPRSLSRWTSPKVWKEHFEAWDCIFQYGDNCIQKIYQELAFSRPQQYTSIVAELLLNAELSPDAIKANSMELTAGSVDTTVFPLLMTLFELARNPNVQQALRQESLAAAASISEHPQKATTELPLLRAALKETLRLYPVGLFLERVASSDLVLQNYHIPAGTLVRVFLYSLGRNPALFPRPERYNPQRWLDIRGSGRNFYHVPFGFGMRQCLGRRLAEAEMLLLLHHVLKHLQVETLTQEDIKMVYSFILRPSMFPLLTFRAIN
As to the kind of experiment: Inhibition of human CYP11B1 expressed in Chinese hamster V79 MZh cells using [14C]-deoxycorticosteron as substrate measured after 6 hrs by phosphoimager analysis. The data set is classed as ADME, cell-based.

The target of data set [3] is T2, Cytochrome P450 11B2, mitochondrial (Homo sapiens, UniProt P19099).
T2 sequence (P19099 whole entry): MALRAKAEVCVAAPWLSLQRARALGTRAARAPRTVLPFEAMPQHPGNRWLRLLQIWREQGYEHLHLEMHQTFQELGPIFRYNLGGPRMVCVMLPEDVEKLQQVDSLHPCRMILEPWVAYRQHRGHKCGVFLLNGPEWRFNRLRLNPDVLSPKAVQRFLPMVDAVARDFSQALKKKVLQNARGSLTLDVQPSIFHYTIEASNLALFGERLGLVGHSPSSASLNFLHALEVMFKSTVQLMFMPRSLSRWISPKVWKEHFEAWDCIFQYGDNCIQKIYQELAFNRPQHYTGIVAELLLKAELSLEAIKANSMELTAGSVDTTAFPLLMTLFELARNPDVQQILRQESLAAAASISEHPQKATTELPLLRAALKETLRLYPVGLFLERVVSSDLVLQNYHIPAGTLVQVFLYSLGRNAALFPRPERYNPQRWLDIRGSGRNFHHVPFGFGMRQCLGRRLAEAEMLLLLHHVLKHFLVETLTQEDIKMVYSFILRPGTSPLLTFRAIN
Put plainly: Inhibition of human CYP11B2 expressed in Chinese hamster V79 MZh cells using [14C]-deoxycorticosteron as substrate measured after 6 hrs by phosphoimager analysis. The data set is classed as ADME, cell-based.

SMILES strings stand for the structures.

`O=C(Nc1ccccc1F)[C@]12ON=C(c3cccnc3)[C@H]1[C@@H]1CC[C@H]2C1`: the “Ratio IC50” value in data set [1] is given as 43. Moreover, the results for the 50% inhibitory concentration (IC50) in data set [2] and in data set [3] were 135 nM and 5750 nM, respectively.
In the same order, the values of `O=C(Nc1ccc2[nH]ncc2c1)[C@]12ON=C(c3cncc(Br)c3)[C@H]1[C@@H]1CC[C@H]2C1` are 30, 31 nM and 918 nM.
With `O=C(Nc1ccc(F)cc1)[C@]12ON=C(c3cccnc3)[C@H]1[C@@H]1CC[C@H]2C1`, in data set [1], the “Ratio IC50” value amounted to 53. Also, the figures for the IC50 in data set [2] and in data set [3] were 57 nM and 2990 nM, respectively.
With `CN(C(=O)[C@]12ON=C(c3cccnc3)[C@H]1[C@@H]1CC[C@H]2C1)c1ccccc1`, the “Ratio IC50” value in data set [1] came out at 23. In addition, the IC50 – broadly, the midpoint of a concentration-inhibition curve – is 183 nM in data set [2] and 4250 nM in data set [3].
As to `O=C(Nc1cnc2[nH]ccc2c1)[C@]12ON=C(c3cccnc3)[C@H]1[C@@H]1CC[C@H]2C1`, the “Ratio IC50” value in data set [1] stood at 97. The IC50 came out at 17 nM in data set [2] and 1650 nM in data set [3].
With `O=C(Nc1cccc(Cl)c1Cl)[C@]12ON=C(c3cccnc3)[C@H]1[C@@H]1CC[C@H]2C1`, the “Ratio IC50” value in data set [1] is given as 33. Also, the concentration for half-maximal inhibition (IC50) in data set [2] was 157 nM; in data set [3], 5120 nM.
Taken in the same sequence, the figures for `Cc1cccc(NC(=O)[C@]23ON=C(c4cccnc4)[C@H]2[C@@H]2CC[C@H]3C2)c1` were 63, 153 nM and 9640 nM.
Take `N#Cc1cccc(NC(=O)[C@]23ON=C(c4cccnc4)[C@H]2[C@@H]2CC[C@H]3C2)c1`: the “Ratio IC50” value in data set [1] is given as 62. For the same molecule, the IC50 in data set [2] was determined as 35 nM; in data set [3], 2180 nM.
On to `O=C(Nc1ccc2[nH]ncc2c1)[C@]12ON=C(c3cncc(-c4cccc(F)c4)c3)[C@H]1[C@@H]1CC[C@H]2C1`, for which, in data set [1], the “Ratio IC50” value is 52. Besides, the half-maximal inhibitory concentration (IC50) was found to be 8 nM in data set [2] and 412 nM in data set [3].
As to `O=C(Nc1cccc(F)c1)[C@]12ON=C(c3cccnc3)[C@H]1[C@@H]1CC[C@H]2C1`, the “Ratio IC50” value in data set [1] was found to be 58. Moreover, the IC50 in data set [2] was determined as 49 nM; in data set [3] it was 2840 nM.
For the molecule `O=C(Nc1ccc2[nH]ncc2c1)[C@]12ON=C(c3cncc(-c4ccc(F)cc4)c3)[C@H]1[C@@H]1CC[C@H]2C1`, the “Ratio IC50” value in data set [1] turned out to be 19. For the same molecule, the IC50 is 6 nM in data set [2] and 113 nM in data set [3].
As to `O=C(Nc1nc2ccccc2[nH]1)[C@]12ON=C(c3cccnc3)[C@H]1[C@@H]1CC[C@H]2C1`, in data set [1], the “Ratio IC50” value came to 28. In addition, the concentration for half-maximal inhibition (IC50) in data set [2] came to 106 nM; in data set [3], 2940 nM.
With `O=C(Nc1cccc(F)n1)[C@]12ON=C(c3cccnc3)[C@H]1[C@@H]1CC[C@H]2C1`, the “Ratio IC50” value in data set [1] is listed as 47. Further, the IC50 came out at 86 nM in data set [2] and 4010 nM in data set [3].
For `COc1cccc(-c2cncc(C3=NO[C@]4(C(=O)Nc5ccc6[nH]ncc6c5)[C@H]5CC[C@H](C5)[C@H]34)c2)c1`, the “Ratio IC50” value in data set [1] was 32. Also, the results for the IC50 in data set [2] and in data set [3] were 15 nM and 477 nM, respectively.
In the same order, the values of `N#Cc1ccc(NC(=O)[C@]23ON=C(c4cccnc4)[C@H]2[C@@H]2CC[C@H]3C2)cc1` are 83, 46 nM and 3800 nM.
For the molecule `Cc1ccncc1NC(=O)[C@]12ON=C(c3cccnc3)[C@H]1[C@@H]1CC[C@H]2C1`, the “Ratio IC50” value in data set [1] was 39. The IC50 in data set [2] was found to be 115 nM; in data set [3] it was 4450 nM.
On to `Nc1ccccc1NC(=O)[C@]12ON=C(c3cccnc3)[C@H]1[C@@H]1CC[C@H]2C1`, for which the “Ratio IC50” value in data set [1] is on record as 31. The figures for the IC50 in data set [2] and in data set [3] were 138 nM and 4310 nM, respectively.
Take `Cc1ccc(NC(=O)[C@]23ON=C(c4cccnc4)[C@H]2[C@@H]2CC[C@H]3C2)cc1`: the “Ratio IC50” value in data set [1] was found to be 49. Also, the values for the IC50 in data set [2] and in data set [3] were 128 nM and 6220 nM, respectively.
Take `O=C(Nc1ccc2[nH]ncc2c1)[C@]12ON=C(c3cncc(-c4ccsc4)c3)[C@H]1[C@@H]1CC[C@H]2C1`: the “Ratio IC50” value in data set [1] worked out at 39. In addition, the IC50 in data set [2] stood at 37 nM; in data set [3], 1430 nM.
Take `Cc1ccccc1NC(=O)[C@]12ON=C(c3cccnc3)[C@H]1[C@@H]1CC[C@H]2C1`: the “Ratio IC50” value in data set [1] is 52. Further, the results for the concentration for half-maximal inhibition (IC50) in data set [2] and in data set [3] were 189 nM and 9770 nM, respectively.
As to `O=C(Nc1ccccc1)[C@]12ON=C(c3cccnc3)[C@H]1[C@@H]1CC[C@H]2C1`, in data set [1], the “Ratio IC50” value came to 36. Besides, the 50% inhibitory concentration (IC50) in data set [2] stood at 167 nM; in data set [3], 5940 nM.
In the same order, the values of `O=C(Nc1ccc2[nH]ncc2c1)[C@]12ON=C(c3cncc(-c4ccoc4)c3)[C@H]1[C@@H]1CC[C@H]2C1` are 17, 46 nM and 796 nM.
In the case of `O=C(Nc1ccc(Cl)cc1)[C@]12ON=C(c3cccnc3)[C@H]1[C@@H]1CC[C@H]2C1`, the “Ratio IC50” value in data set [1] is 81. Also, the figures for the IC50 in data set [2] and in data set [3] were 83 nM and 6720 nM, respectively.
Regarding `COc1ccc(NC(=O)[C@]23ON=C(c4cccnc4)[C@H]2[C@@H]2CC[C@H]3C2)cc1`, the “Ratio IC50” value in data set [1] was determined as 51. The IC50 was 79 nM in data set [2] and 4020 nM in data set [3].
Regarding `N#Cc1ccc(-c2cncc(C3=NO[C@]4(C(=O)Nc5ccc6[nH]ncc6c5)[C@H]5CC[C@H](C5)[C@H]34)c2)cc1`, in data set [1], the “Ratio IC50” value is given as 28. Further, the values for the IC50 in data set [2] and in data set [3] were 2 nM and 57 nM, respectively.
Taken in the same sequence, the figures for `O=C(Nc1ccc2[nH]ncc2c1)[C@]12ON=C(c3cncc(-c4cccc(C(F)(F)F)c4)c3)[C@H]1[C@@H]1CC[C@H]2C1` were 23, 17 nM and 398 nM.
Turning to `O=C(Nc1ccc([N+](=O)[O-])cc1)[C@]12ON=C(c3cccnc3)[C@H]1[C@@H]1CC[C@H]2C1`, the “Ratio IC50” value in data set [1] is listed as 58. The figures for the IC50 in data set [2] and in data set [3] were 96 nM and 5590 nM, respectively.
On to `O=C(Nc1cccc(Cl)c1)[C@]12ON=C(c3cccnc3)[C@H]1[C@@H]1CC[C@H]2C1`, for which the “Ratio IC50” value in data set [1] was found to be 69. For the same molecule, the concentration for half-maximal inhibition (IC50) in data set [2] amounted to 97 nM; in data set [3], 6670 nM.
Regarding `O=C(Nc1ncccn1)[C@]12ON=C(c3cccnc3)[C@H]1[C@@H]1CC[C@H]2C1`, the “Ratio IC50” value in data set [1] was 43. The IC50 in data set [2] turned out to be 179 nM; in data set [3], 7710 nM.
In the case of `O=C(Nc1ccc2cc[nH]c2c1)[C@]12ON=C(c3cccnc3)[C@H]1[C@@H]1CC[C@H]2C1`, in data set [1], the “Ratio IC50” value was determined as 82. For the same molecule, the IC50 in data set [2] came to 25 nM; in data set [3] it was 2070 nM.
As for `O=C(Nc1ccc2[nH]ccc2c1)[C@]12ON=C(c3cccnc3)[C@H]1[C@@H]1CC[C@H]2C1`, the “Ratio IC50” value in data set [1] amounted to 103. Besides, the IC50 in data set [2] worked out at 22 nM; in data set [3], 2280 nM.
`COc1cccc(NC(=O)[C@]23ON=C(c4cccnc4)[C@H]2[C@@H]2CC[C@H]3C2)c1`: the “Ratio IC50” value in data set [1] is recorded as 75. Besides, the IC50 in data set [2] stood at 32 nM; in data set [3] it was 2390 nM.
`COc1ccccc1NC(=O)[C@]12ON=C(c3cccnc3)[C@H]1[C@@H]1CC[C@H]2C1`: the “Ratio IC50” value in data set [1] is on record as 53. In addition, the IC50 is 113 nM in data set [2] and 5950 nM in data set [3].
Taken in the same sequence, the figures for `N#Cc1cccc(-c2cncc(C3=NO[C@]4(C(=O)Nc5ccc6[nH]ncc6c5)[C@H]5CC[C@H](C5)[C@H]34)c2)c1` were 27, 12 nM and 329 nM.
Taken in the same sequence, the figures for `O=C(Nc1cccc([N+](=O)[O-])c1)[C@]12ON=C(c3cccnc3)C1[C@@H]1CCC2C1` (single isomer, unassigned) were 41, 65 nM and 2600 nM.
